Legend:
SH-SY5Y cells = test: Cytotoxicity, Cell Counting Kit (CCK)-8; format: cell-based; conditions: SH-SY5Y cells, 0.1, 1, 5, 10, 20, and 50 μM; up to 50 μM
Description: The cell growth in the presence of novel ginsenoside GS #10, which is an example of the present disclosure, was evaluated using Cell Counting Kit (CCK)-8, in order to exclude the possibility that ginsenosides may affect skin brightening efficacy through cytotoxic activity.
Specifically, the viability of SH-SY5Y cells was assessed using CCK-8 assay according to manufacturer's instructions (Dojindo, Md., USA). CCK-8, a cell viability detection reagent, was added to the cultured SH-SY5Y cells and incubated for 2 hours in a wet atmosphere. Then, absorbance was measured at 450 nm, and the cell viability was marked as a percentage (%) of the absolute optical density of each sample relative to the untreated sample. At this time, the concentration of the novel ginsenoside GS #10, which is an example of the present disclosure, contained in the medium in which the cells were cultured was 0.1, 1, 5, 10, 20, and 50 μM, respectively.

[1] = target: Mushroom-derived tyrosinase; test: Inhibitory effect of tyrosinase activity; format: biochemical; conditions: L-tyrosine substrate, 20 minutes at 37° C., absorbance at 490 nm
Description: In order to compare the skin brightening effects of ginsenosides isolated from the ginseng seed extract, the inhibitory effect of the tyrosinase activity was evaluated as follows. Mushroom-derived tyrosinase and tyrosine were obtained from Sigma Chemical. […] Tyrosinase activity was assessed by measuring the absorbance at 490 nm using a microplate reader (Bio-Rad 3550, Richmond, Calif., U.S.A.) after an enzyme reaction for 20 minutes at 37° C.

healthy adult subjects = test: Human repeated insult patch tests (HRIPT), skin accumulated irritation; format: in vivo; design: key to reactivity (skin response, ICDRG criteria): −: Negative (no response); ±: Suspicious or slight erythema, or the like; +: Weak reactions (without vesicles), erythema, papules; ++: Severe reactions (with vesicles), erythema, papules, vesicles; +++: Strong reaction, bulla reaction; conditions: for Average reactivity: safe when less than 3
Description: Human repeated insult patch tests (HRIPT) were performed to confirm whether the novel ginsenoside GS #10, which is an example of the present disclosure, has a skin accumulated irritation and to calculate a concentration range that can be used on the skin.
Specifically, 15 healthy adult subjects were randomly selected, and the test composition containing 0.5 wt %, 1 wt %, and 3 wt % of the compound (the skin composition comprising an emulsifier, a stabilizer, purified water, etc. in addition to the compound) was added dropwise by 20 μl per chamber (IQ chamber, Epitest Ltd, Finland). After 24 hours from patching the upper right part of the back of a subject, it was replaced with the new patch. In this way, the skin reactions were examined before and after each patch while performing nine patches three times a week for a total of three weeks. The skin reactions were confirmed up to 48 hours after removing the final patch, and the average reactivity was obtained.
The skin response was determined according to the criteria of the International Contact Dermatitis Research Group (ICDRG). […] This means that the novel ginsenoside GS #10, which is an example of the present disclosure, has no skin accumulated irritation and can be used safely on the skin.

Mel-Ab cell line = test: Melanin production inhibition (Dooley's method); format: cell-based, C57BL/6; conditions: Mel-Ab cells, after 5 days, absorbance at 400 nm

CC1(C)C(=O)CC[C@@]2(C)C1[C@@H](O[C@H]1OC(CO)[C@H](O)C(O)C1O[C@H]1OC(CO)[C@H](O)C(O)C1O)C[C@]1(C)C2C[C@@H](O)C2C([C@]3(C)CC[C@H](C(C)(C)O)O3)CC[C@]21C (stereo partly drawn) [GS#10, (20S,24R)-6-O-β-D-glucopyranosyl(1→2)-β-D-glucopyranoside-dammar-3-one-20,24-epoxy-6a,12b,25-triol]
22 ppm: IC50 (ppm), concentration required to reduce melanin production in melanocytes by half (Mel-Ab cell line)
did not exhibit cytotoxicity: cytotoxicity (cell viability) (SH-SY5Y cells)
0 person: Number of subjects with ±, +, or ++ reactivity (healthy adult subjects; 0.5 wt %, Eight times, 1st line (±)) | Number of subjects with ±, +, or ++ reactivity (healthy adult subjects; 0.5 wt %, Eight times, 2nd line (+)) | Number of subjects with ±, +, or ++ reactivity (healthy adult subjects; 0.5 wt %, Eight times, 3rd line (++)) | Number of subjects with ±, +, or ++ reactivity (healthy adult subjects; 0.5 wt %, Five times, 1st line (±)) | Number of subjects with ±, +, or ++ reactivity (healthy adult subjects; 0.5 wt %, Five times, 2nd line (+)) | Number of subjects with ±, +, or ++ reactivity (healthy adult subjects; 0.5 wt %, Five times, 3rd line (++)) | Number of subjects with ±, +, or ++ reactivity (healthy adult subjects; 0.5 wt %, Four times, 1st line (±)) | Number of subjects with ±, +, or ++ reactivity (healthy adult subjects; 0.5 wt %, Four times, 2nd line (+)) | Number of subjects with ±, +, or ++ reactivity (healthy adult subjects; 0.5 wt %, Four times, 3rd line (++)) | Number of subjects with ±, +, or ++ reactivity (healthy adult subjects; 0.5 wt %, Nine times, 1st line (±)) | Number of subjects with ±, +, or ++ reactivity (healthy adult subjects; 0.5 wt %, Nine times, 2nd line (+)) | Number of subjects with ±, +, or ++ reactivity (healthy adult subjects; 0.5 wt %, Nine times, 3rd line (++)) | Number of subjects with ±, +, or ++ reactivity (healthy adult subjects; 0.5 wt %, Once, 1st line (±)) | Number of subjects with ±, +, or ++ reactivity (healthy adult subjects; 0.5 wt %, Once, 2nd line (+)) | Number of subjects with ±, +, or ++ reactivity (healthy adult subjects; 0.5 wt %, Once, 3rd line (++)) | Number of subjects with ±, +, or ++ reactivity (healthy adult subjects; 0.5 wt %, Seven times, 1st line (±)) | Number of subjects with ±, +, or ++ reactivity (healthy adult subjects; 0.5 wt %, Seven times, 2nd line (+)) | Number of subjects with ±, +, or ++ reactivity (healthy adult subjects; 0.5 wt %, Seven times, 3rd line (++)) | Number of subjects with ±, +, or ++ reactivity (healthy adult subjects; 0.5 wt %, Six times, 1st line (±)) | Number of subjects with ±, +, or ++ reactivity (healthy adult subjects; 0.5 wt %, Six times, 2nd line (+)) | Number of subjects with ±, +, or ++ reactivity (healthy adult subjects; 0.5 wt %, Six times, 3rd line (++)) | Number of subjects with ±, +, or ++ reactivity (healthy adult subjects; 0.5 wt %, Three times, 1st line (±)) | Number of subjects with ±, +, or ++ reactivity (healthy adult subjects; 0.5 wt %, Three times, 2nd line (+)) | Number of subjects with ±, +, or ++ reactivity (healthy adult subjects; 0.5 wt %, Three times, 3rd line (++)) | Number of subjects with ±, +, or ++ reactivity (healthy adult subjects; 0.5 wt %, twice, 1st line (±)) | Number of subjects with ±, +, or ++ reactivity (healthy adult subjects; 0.5 wt %, twice, 2nd line (+)) | Number of subjects with ±, +, or ++ reactivity (healthy adult subjects; 0.5 wt %, twice, 3rd line (++)) | Number of subjects with ±, +, or ++ reactivity (healthy adult subjects; 1 wt %, Eight times, 1st line (±)) | Number of subjects with ±, +, or ++ reactivity (healthy adult subjects; 1 wt %, Eight times, 2nd line (+)) | Number of subjects with ±, +, or ++ reactivity (healthy adult subjects; 1 wt %, Eight times, 3rd line (++)) | Number of subjects with ±, +, or ++ reactivity (healthy adult subjects; 1 wt %, Five times, 1st line (±)) | Number of subjects with ±, +, or ++ reactivity (healthy adult subjects; 1 wt %, Five times, 2nd line (+)) | Number of subjects with ±, +, or ++ reactivity (healthy adult subjects; 1 wt %, Five times, 3rd line (++)) | Number of subjects with ±, +, or ++ reactivity (healthy adult subjects; 1 wt %, Four times, 1st line (±)) | Number of subjects with ±, +, or ++ reactivity (healthy adult subjects; 1 wt %, Four times, 2nd line (+)) | Number of subjects with ±, +, or ++ reactivity (healthy adult subjects; 1 wt %, Four times, 3rd line (++)) | Number of subjects with ±, +, or ++ reactivity (healthy adult subjects; 1 wt %, Nine times, 1st line (±)) | Number of subjects with ±, +, or ++ reactivity (healthy adult subjects; 1 wt %, Nine times, 2nd line (+)) | Number of subjects with ±, +, or ++ reactivity (healthy adult subjects; 1 wt %, Nine times, 3rd line (++)) | Number of subjects with ±, +, or ++ reactivity (healthy adult subjects; 1 wt %, Once, 1st line (±)) | Number of subjects with ±, +, or ++ reactivity (healthy adult subjects; 1 wt %, Once, 2nd line (+)) | Number of subjects with ±, +, or ++ reactivity (healthy adult subjects; 1 wt %, Once, 3rd line (++)) | Number of subjects with ±, +, or ++ reactivity (healthy adult subjects; 1 wt %, Seven times, 1st line (±)) | Number of subjects with ±, +, or ++ reactivity (healthy adult subjects; 1 wt %, Seven times, 2nd line (+)) | Number of subjects with ±, +, or ++ reactivity (healthy adult subjects; 1 wt %, Seven times, 3rd line (++)) | Number of subjects with ±, +, or ++ reactivity (healthy adult subjects; 1 wt %, Six times, 1st line (±)) | Number of subjects with ±, +, or ++ reactivity (healthy adult subjects; 1 wt %, Six times, 2nd line (+)) | Number of subjects with ±, +, or ++ reactivity (healthy adult subjects; 1 wt %, Six times, 3rd line (++)) | Number of subjects with ±, +, or ++ reactivity (healthy adult subjects; 1 wt %, Three times, 1st line (±)) | Number of subjects with ±, +, or ++ reactivity (healthy adult subjects; 1 wt %, Three times, 2nd line (+)) | Number of subjects with ±, +, or ++ reactivity (healthy adult subjects; 1 wt %, Three times, 3rd line (++)) | Number of subjects with ±, +, or ++ reactivity (healthy adult subjects; 1 wt %, twice, 1st line (±)) | Number of subjects with ±, +, or ++ reactivity (healthy adult subjects; 1 wt %, twice, 2nd line (+)) | Number of subjects with ±, +, or ++ reactivity (healthy adult subjects; 1 wt %, twice, 3rd line (++)) | Number of subjects with ±, +, or ++ reactivity (healthy adult subjects; 3 wt %, Eight times, 1st line (±)) | Number of subjects with ±, +, or ++ reactivity (healthy adult subjects; 3 wt %, Eight times, 2nd line (+)) | Number of subjects with ±, +, or ++ reactivity (healthy adult subjects; 3 wt %, Eight times, 3rd line (++)) | Number of subjects with ±, +, or ++ reactivity (healthy adult subjects; 3 wt %, Five times, 1st line (±)) | Number of subjects with ±, +, or ++ reactivity (healthy adult subjects; 3 wt %, Five times, 2nd line (+)) | Number of subjects with ±, +, or ++ reactivity (healthy adult subjects; 3 wt %, Five times, 3rd line (++)) | Number of subjects with ±, +, or ++ reactivity (healthy adult subjects; 3 wt %, Four times, 1st line (±)) | Number of subjects with ±, +, or ++ reactivity (healthy adult subjects; 3 wt %, Four times, 2nd line (+)) | Number of subjects with ±, +, or ++ reactivity (healthy adult subjects; 3 wt %, Four times, 3rd line (++)) | Number of subjects with ±, +, or ++ reactivity (healthy adult subjects; 3 wt %, Nine times, 1st line (±)) | Number of subjects with ±, +, or ++ reactivity (healthy adult subjects; 3 wt %, Nine times, 2nd line (+)) | Number of subjects with ±, +, or ++ reactivity (healthy adult subjects; 3 wt %, Nine times, 3rd line (++)) | Number of subjects with ±, +, or ++ reactivity (healthy adult subjects; 3 wt %, Once, 1st line (±)) | Number of subjects with ±, +, or ++ reactivity (healthy adult subjects; 3 wt %, Once, 2nd line (+)) | Number of subjects with ±, +, or ++ reactivity (healthy adult subjects; 3 wt %, Once, 3rd line (++)) | Number of subjects with ±, +, or ++ reactivity (healthy adult subjects; 3 wt %, Seven times, 1st line (±)) | Number of subjects with ±, +, or ++ reactivity (healthy adult subjects; 3 wt %, Seven times, 2nd line (+)) | Number of subjects with ±, +, or ++ reactivity (healthy adult subjects; 3 wt %, Seven times, 3rd line (++)) | Number of subjects with ±, +, or ++ reactivity (healthy adult subjects; 3 wt %, Six times, 1st line (±)) | Number of subjects with ±, +, or ++ reactivity (healthy adult subjects; 3 wt %, Six times, 2nd line (+)) | Number of subjects with ±, +, or ++ reactivity (healthy adult subjects; 3 wt %, Six times, 3rd line (++)) | Number of subjects with ±, +, or ++ reactivity (healthy adult subjects; 3 wt %, Three times, 1st line (±)) | Number of subjects with ±, +, or ++ reactivity (healthy adult subjects; 3 wt %, Three times, 2nd line (+)) | Number of subjects with ±, +, or ++ reactivity (healthy adult subjects; 3 wt %, Three times, 3rd line (++)) | Number of subjects with ±, +, or ++ reactivity (healthy adult subjects; 3 wt %, twice, 1st line (±)) | Number of subjects with ±, +, or ++ reactivity (healthy adult subjects; 3 wt %, twice, 2nd line (+)) | Number of subjects with ±, +, or ++ reactivity (healthy adult subjects; 3 wt %, twice, 3rd line (++))
0: Average reactivity (healthy adult subjects; 0.5 wt %) | Average reactivity (healthy adult subjects; 1 wt %) | Average reactivity (healthy adult subjects; 3 wt %)
15 ppm: IC50 (ppm), inhibitory effect of tyrosinase activity [1]
−: reactivity (skin response, ICDRG criteria) (healthy adult subjects; all content range (0.5 wt %, 1 wt %, 3 wt %), nine patches in three weeks)

Reference: patent publication US10722442B2, “Skin brightening composition comprising novel ginsenoside” (AMOREPACIFIC CORPORATION, priority 2018, dated 2020)
